Experimental data reported in the NIST ThermoML archive (doi:10.1016/j.jct.2015.12.025).

Assay: refractive index (Na D-line) (dimensionless); xn = mol fraction of the nth substance listed
Conditions: 102 kPa, Liquid, Standard Abbe refractometry

C[Si]1(CCC(F)(F)F)O[Si](C)(CCC(F)(F)F)O[Si](C)(CCC(F)(F)F)O1 (stereo not given) + O=[N+]([O-])c1ccccc1
refractive index
Conditions | 308.15 K | 313.15 K | 318.15 K | 323.15 K
x1 = 0.05 | 1.51601 | 1.51362 | 1.51123 | 1.50882
x1 = 0.0999 | 1.49288 | 1.49054 | 1.48816 | 1.48586
x1 = 0.1499 | 1.47398 | 1.47168 | 1.46935 | 1.46705
x1 = 0.1919 | 1.46058 | 1.4583 | 1.45605 | 1.45377
x1 = 0.2499 | 1.44494 | 1.4427 | 1.44048 | 1.43827
x1 = 0.2999 | 1.43355 | 1.43137 | 1.42916 | 1.42695
x1 = 0.3501 | 1.42369 | 1.42151 | 1.41931 | 1.41713
x1 = 0.3999 | 1.41513 | 1.41296 | 1.41082 | 1.40865
x1 = 0.4499 | 1.40755 | 1.4054 | 1.40325 | 1.40109
x1 = 0.5008 | 1.4007 | 1.39858 | 1.39644 | 1.39433
x1 = 0.55 | 1.39478 | 1.3927 | 1.39053 | 1.38845
x1 = 0.6001 | 1.38938 | 1.38728 | 1.38519 | 1.3831
x1 = 0.6501 | 1.38448 | 1.38239 | 1.38032 | 1.37824
x1 = 0.6997 | 1.38006 | 1.378 | 1.37594 | 1.37384
x1 = 0.75 | 1.376 | 1.37391 | 1.37188 | 1.36984
x1 = 0.8002 | 1.37227 | 1.37021 | 1.36817 | 1.36612
x1 = 0.8498 | 1.36887 | 1.36681 | 1.36478 | 1.36274
x1 = 0.9002 | 1.36567 | 1.36365 | 1.36163 | 1.35959
x1 = 0.9492 | 1.36284 | 1.36084 | 1.35878 | 1.35679
x1 = 1 | 1.36011 | 1.35808 | 1.35609 | 1.35407
